# Molecular target: recombinant EZH2-641F complex (EZH2 Y641F/EED/SUZ12/RbAp48/AEBP2) (Homo sapiens (Human), UniProt Q15910, Y641F)
# Experiment: EZH2 Histone Methyl Transferase Assay (scintillation proximity assay)
# Type: biochemical
# Details: 350 nM histone peptide substrate, 500 nM 3H-SAM, 3 hours room temperature
# Experimental: EZH2 Histone Methyl Transferase Assay
# The effectiveness of compounds of the present invention as inhibitors of histone methyl transferases can be readily tested by assays known to those skilled in the art. For example, in vitro histone methyl transferase assays may be conducted with a relevant purified histone methyl transferase and an appropriate synthetic substrate to determine the inhibitory activity of the compounds. Assays for inhibition of EZH2 by the instant compounds were performed in 384-well plates with reaction mixtures containing 350 nM of histone peptide substrate (ATKAAR-K(Me2)-SAPATGGVKKPHRYRPG-GK(Biotin), 500 nM S-[methyl-^3H]adenosyl-L-methionine (55-85 Ci/mmol), 50 mM Tris-HCl (pH 9.0), 50 mM NaCl, 1 mM dithiothreitol, Tween-20 at 0.01% and fatty-acid free bovine serum albumin at 0.01%, and recombinant EZH2-641F complex (EZH2 Y641F/EED/SUZ12/RbAp48/AEBP2) at 5 nM (>98% purity, BPS Bioscience) or 15 nM (50% purity, in-house). Reaction mixtures were incubated at room temperature for 3 hours, and the reactions were terminated by 0.005% poly-L-lysine solution in 20 mM Tris-HCl (pH 7.5) and 150 mM NaCl. Reaction products were captured by binding to strepavidin-conjugated imaging beads. Incorporation of radioactive methyl group into the histone peptide substrate was determined in Leadseeker (GE Healthcare) by means of scintillation proximity assay. Dose response curves were generated to determine the concentration required to inhibit 50% of methyl transferase activity (EC50). Compounds were dissolved at 10 mM in dimethylsulfoxide (DMSO) and evaluated at eleven concentrations. EC50 values were derived by non-linear regression analysis.
# Sequence of recombinant EZH2-641F complex (EZH2 Y641F/EED/SUZ12/RbAp48/AEBP2) (Q15910 whole entry Y641F): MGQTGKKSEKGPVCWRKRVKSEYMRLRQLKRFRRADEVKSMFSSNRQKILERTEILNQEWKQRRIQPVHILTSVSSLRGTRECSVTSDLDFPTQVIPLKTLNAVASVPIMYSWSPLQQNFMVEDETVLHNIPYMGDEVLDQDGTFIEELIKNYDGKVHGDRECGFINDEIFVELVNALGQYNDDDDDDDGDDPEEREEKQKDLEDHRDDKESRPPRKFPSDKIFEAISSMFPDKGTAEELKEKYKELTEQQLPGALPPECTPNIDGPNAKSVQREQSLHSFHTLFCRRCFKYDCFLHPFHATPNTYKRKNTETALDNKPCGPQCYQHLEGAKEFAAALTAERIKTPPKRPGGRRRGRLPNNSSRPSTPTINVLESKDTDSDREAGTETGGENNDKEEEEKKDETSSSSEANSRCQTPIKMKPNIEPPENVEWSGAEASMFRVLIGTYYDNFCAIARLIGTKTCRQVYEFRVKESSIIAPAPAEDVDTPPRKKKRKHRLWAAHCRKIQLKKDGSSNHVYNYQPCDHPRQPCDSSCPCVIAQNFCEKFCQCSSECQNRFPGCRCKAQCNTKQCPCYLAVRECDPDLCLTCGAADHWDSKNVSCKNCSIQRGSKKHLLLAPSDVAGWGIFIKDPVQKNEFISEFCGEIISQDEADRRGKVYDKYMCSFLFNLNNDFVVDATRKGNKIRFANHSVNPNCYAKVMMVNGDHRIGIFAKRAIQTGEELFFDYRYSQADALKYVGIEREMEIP
# Sequence of recombinant EZH2-641F complex (EZH2 Y641F/EED/SUZ12/RbAp48/AEBP2) (O75530 whole entry partner): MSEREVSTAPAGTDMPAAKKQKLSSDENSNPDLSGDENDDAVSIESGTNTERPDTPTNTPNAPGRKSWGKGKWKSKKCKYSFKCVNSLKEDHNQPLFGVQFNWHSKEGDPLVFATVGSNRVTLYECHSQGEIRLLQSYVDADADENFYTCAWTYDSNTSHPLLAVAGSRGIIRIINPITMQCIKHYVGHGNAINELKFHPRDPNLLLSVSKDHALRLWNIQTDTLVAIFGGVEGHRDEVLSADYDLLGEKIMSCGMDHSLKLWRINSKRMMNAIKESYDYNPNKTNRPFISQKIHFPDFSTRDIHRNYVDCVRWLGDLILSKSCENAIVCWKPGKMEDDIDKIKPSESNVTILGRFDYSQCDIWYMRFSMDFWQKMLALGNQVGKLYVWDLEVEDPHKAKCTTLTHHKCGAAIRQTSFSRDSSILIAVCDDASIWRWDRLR
# Sequence of recombinant EZH2-641F complex (EZH2 Y641F/EED/SUZ12/RbAp48/AEBP2) (Q15022 whole entry partner): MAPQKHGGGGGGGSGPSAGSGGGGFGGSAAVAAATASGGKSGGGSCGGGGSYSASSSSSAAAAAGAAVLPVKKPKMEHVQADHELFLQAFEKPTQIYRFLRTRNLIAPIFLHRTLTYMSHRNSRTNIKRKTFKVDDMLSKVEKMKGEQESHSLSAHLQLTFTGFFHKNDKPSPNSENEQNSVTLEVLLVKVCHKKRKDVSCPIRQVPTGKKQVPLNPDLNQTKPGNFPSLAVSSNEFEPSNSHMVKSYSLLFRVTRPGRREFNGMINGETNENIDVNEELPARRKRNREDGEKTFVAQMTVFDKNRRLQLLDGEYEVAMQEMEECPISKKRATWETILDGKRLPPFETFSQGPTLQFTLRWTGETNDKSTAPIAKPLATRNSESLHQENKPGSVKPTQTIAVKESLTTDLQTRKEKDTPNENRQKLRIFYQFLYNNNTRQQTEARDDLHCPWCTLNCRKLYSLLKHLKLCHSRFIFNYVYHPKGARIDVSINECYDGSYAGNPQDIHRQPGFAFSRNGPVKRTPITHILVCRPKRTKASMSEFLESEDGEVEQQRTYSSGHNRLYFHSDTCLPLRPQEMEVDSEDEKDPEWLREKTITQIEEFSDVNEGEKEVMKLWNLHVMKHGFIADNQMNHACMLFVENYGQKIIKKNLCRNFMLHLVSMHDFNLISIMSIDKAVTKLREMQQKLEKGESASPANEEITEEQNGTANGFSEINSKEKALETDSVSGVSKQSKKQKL
# Sequence of recombinant EZH2-641F complex (EZH2 Y641F/EED/SUZ12/RbAp48/AEBP2) (Q09028 whole entry partner): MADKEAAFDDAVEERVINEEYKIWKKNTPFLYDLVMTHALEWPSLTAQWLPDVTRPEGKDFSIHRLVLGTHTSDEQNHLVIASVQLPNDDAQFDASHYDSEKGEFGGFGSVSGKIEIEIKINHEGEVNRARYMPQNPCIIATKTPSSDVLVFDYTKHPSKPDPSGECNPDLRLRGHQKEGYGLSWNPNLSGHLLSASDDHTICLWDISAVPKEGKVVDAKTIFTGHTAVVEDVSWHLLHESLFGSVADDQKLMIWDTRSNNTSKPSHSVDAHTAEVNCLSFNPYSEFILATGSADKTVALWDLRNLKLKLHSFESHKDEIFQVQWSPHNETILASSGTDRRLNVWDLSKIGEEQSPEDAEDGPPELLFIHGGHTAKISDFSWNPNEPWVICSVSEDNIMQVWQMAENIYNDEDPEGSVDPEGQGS
# Sequence of recombinant EZH2-641F complex (EZH2 Y641F/EED/SUZ12/RbAp48/AEBP2) (Q6ZN18 whole entry partner): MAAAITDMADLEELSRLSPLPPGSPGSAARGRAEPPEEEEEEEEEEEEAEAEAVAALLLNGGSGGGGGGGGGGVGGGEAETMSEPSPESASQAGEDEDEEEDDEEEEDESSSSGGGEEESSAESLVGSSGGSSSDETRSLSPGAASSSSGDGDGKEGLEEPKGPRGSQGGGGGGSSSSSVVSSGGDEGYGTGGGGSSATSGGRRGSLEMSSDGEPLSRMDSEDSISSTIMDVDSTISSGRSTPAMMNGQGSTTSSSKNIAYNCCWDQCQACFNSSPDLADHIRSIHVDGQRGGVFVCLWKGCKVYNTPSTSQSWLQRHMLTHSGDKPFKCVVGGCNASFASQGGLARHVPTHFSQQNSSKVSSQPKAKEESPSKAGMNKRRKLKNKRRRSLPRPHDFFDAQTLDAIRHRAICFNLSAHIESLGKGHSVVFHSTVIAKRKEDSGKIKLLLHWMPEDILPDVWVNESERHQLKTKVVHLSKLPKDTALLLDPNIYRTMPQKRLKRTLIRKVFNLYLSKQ
row,SMILES,IC50 [nM]
1,"Cc1cc(C)c(CNC(=O)c2cc(Br)c3c(c2)[C@@H](C)[C@H](C)O3)c(=O)[nH]1 (racemic) [Example 40, rac-(2S,3R)-7-bromo-N-((4,6-dimethyl-2-oxo-1,2-dihydropyridin-3-yl)methyl)-2,3-dimethyl-2,3-dihydrobenzofuran-5-carboxamide]",> 1000
2,"Cc1cc(C)c(CNC(=O)c2cc(Br)c3c(c2)[C@@H]2CCC[C@]2(C)O3)c(=O)[nH]1 (racemic) [Example 64, rac-(3aS,8bS)-5-Bromo-N-((4,6-dimethyl-2-oxo-1,2-dihydropyridin-3-yl)methyl)-3a-methyl-2,3,3a,8b-tetrahydro-1H-cyclopenta[b]benzofuran-7-carboxamide]",> 1000
3,"Cc1cc(C)c(CNC(=O)c2cc(-c3ccc(N4CCNCC4)nc3)c3c(c2)[C@@H]2CCC[C@]2(C)O3)c(=O)[nH]1 (racemic) [Example 65, rac-(3aS,8bS)—N-((4,6-Dimethyl-2-oxo-1,2-dihydropyridin-3-yl)methyl)-3a-methyl-5-(6-(piperazin-1-yl)pyridin-3-yl)-2,3,3a,8b-tetrahydro-1H-cyclopenta[b]benzofuran-7-carboxamide]",< 500
4,"COc1ccc(-c2cc(C(=O)NCc3c(C)cc(C)[nH]c3=O)cc3c2O[C@@]2(C)CCC[C@@H]32)cn1 (racemic) [Example 66, rac-(3aS,8bS)—N-((4,6-Dimethyl-2-oxo-1,2-dihydropyridin-3-yl)methyl)-5-(6-methoxypyridin-3-yl)-3a-methyl-2,3,3a,8b-tetrahydro-1H-cyclopenta[b]benzofuran-7-carboxamide]",500 to 1000
5,"Cc1cc(C)c(CNC(=O)c2cc(-c3ccc(CN4CCCCC4)cc3)c3c(c2)[C@@H]2CCC[C@]2(C)O3)c(=O)[nH]1 (racemic) [Example 67, rac-(3aS,8bS)—N-((4,6-Dimethyl-2-oxo-1,2-dihydropyridin-3-yl)methyl)-3a-methyl-5-(4-(piperidin-1-ylmethyl)phenyl)-2,3,3a,8b-tetrahydro-1H-cyclopenta[b]benzofuran-7-carboxamide]",500 to 1000
6,"Cc1cc(C)c(CNC(=O)c2cc(-c3ccc(N4CCNCC4)cc3)c3c(c2)[C@@H]2CCC[C@]2(C)O3)c(=O)[nH]1 (racemic) [Example 68, rac-(3aS,8bS)—N-((4,6-Dimethyl-2-oxo-1,2-dihydropyridin-3-yl)methyl)-3a-methyl-5-(4-(piperazin-1-yl)phenyl)-2,3,3a,8b-tetrahydro-1H-cyclopenta[b]benzofuran-7-carboxamide]",500 to 1000
7,"Cc1cc(C)c(CNC(=O)c2cc3c(c(Br)c2C)O[C@@]2(C)CCC[C@@H]32)c(=O)[nH]1 (racemic) [Example 69, rac-(3aS,8bS)-5-Bromo-N-((4,6-dimethyl-2-oxo-1,2-dihydropyridin-3-yl)methyl)-3a,6-dimethyl-2,3,3a,8b-tetrahydro-1H-cyclopenta[b]benzofuran-7-carboxamide]",< 500
8,"Cc1cc(C)c(CNC(=O)c2cc(Br)c3c(c2)CC(C)(C)O3)c(=O)[nH]1 [Example 1, 7-Bromo-N-((4,6-dimethyl-2-oxo-1,2-dihydropyridin-3-yl)methyl)-2,2-dimethyl-2,3-dihydrobenzofuran-5-carboxamide]",< 500
9,"Cc1cc(C)c(CNC(=O)c2ccc3c(c2)CC(C)(C)O3)c(=O)[nH]1 [Example 2, N-((4,6-Dimethyl-2-oxo-1,2-dihydropyridin-3-yl)methyl)-2,2-dimethyl-2,3-dihydrobenzofuran-5-carboxamide]",> 1000
10,"Cc1cc(C)c(CNC(=O)c2cc(Cl)c3c(c2)CC(C)(C)O3)c(=O)[nH]1 [Example 3, 7-Chloro-N-((4,6-dimethyl-2-oxo-1,2-dihydropyridin-3-yl)methyl)-2,2-dimethyl-2,3-dihydrobenzofuran-5-carboxamide]",> 1000
11,"Cc1cc(C)c(CNC(=O)c2cc(F)c3c(c2)CC(C)(C)O3)c(=O)[nH]1 [Example 4, N-((4,6-Dimethyl-2-oxo-1,2-dihydropyridin-3-yl)methyl)-7-fluoro-2,2-dimethyl-2,3-dihydrobenzofuran-5-carboxamide]",> 1000
12,"Cc1cc(C)c(CNC(=O)c2cc(C)c3c(c2)CC(C)(C)O3)c(=O)[nH]1 [Example 6, N-((4,6-Dimethyl-2-oxo-1,2-dihydropyridin-3-yl)methyl)-2,2,7-trimethyl-2,3-dihydrobenzofuran-5-carboxamide]",> 1000
13,"Cc1cc(C)c(CNC(=O)c2cc(Br)c3c(c2C)CC(C)(C)O3)c(=O)[nH]1 [Example 7, 7-Bromo-N-((4,6-dimethyl-2-oxo-1,2-dihydropyridin-3-yl)methyl)-2,2,4-trimethyl-2,3-dihydrobenzofuran-5-carboxamide]",500 to 1000
14,"Cc1cc(C)c(CNC(=O)c2ccc3c(c2C)CC(C)(C)O3)c(=O)[nH]1 [Example 8, N-((4,6-Dimethyl-2-oxo-1,2-dihydropyridin-3-yl)methyl)-2,2,4-trimethyl-2,3-dihydrobenzofuran-5-carboxamide]",> 1000
15,"Cc1cc(C)c(CNC(=O)c2cc(C)c3c(c2C)CC(C)(C)O3)c(=O)[nH]1 [Example 9, N-((4,6-Dimethyl-2-oxo-1,2-dihydropyridin-3-yl)methyl)-2,2,4,7-tetramethyl-2,3-dihydrobenzofuran-5-carboxamide]",> 1000
16,"Cc1cc(C)c(CNC(=O)c2cc3c(c(-c4ccc(CN5CCOCC5)cc4)c2)OC(C)(C)C3)c(=O)[nH]1 [Example 10, N-((4,6-Dimethyl-2-oxo-1,2-dihydropyridin-3-yl)methyl)-2,2-dimethyl-7-(4-(morpholinomethyl)phenyl)-2,3-dihydrobenzofuran-5-carboxamide]",> 1000
17,"Cc1cc(C)c(CNC(=O)c2cc3c(c(-c4ccc(N5CCNCC5)nc4)c2)OC(C)(C)C3)c(=O)[nH]1 [Example 11, N-((4,6-Dimethyl-2-oxo-1,2-dihydropyridin-3-yl)methyl)-2,2-dimethyl-7-(6-(piperazin-1-yl)pyridin-3-yl)-2,3-dihydrobenzofuran-5-carboxamide]",< 500
18,"Cc1cc(C)c(CNC(=O)c2cc3c(c(-c4ccc(N5CCOCC5)nc4)c2)OC(C)(C)C3)c(=O)[nH]1 [Example 12, N-((4,6-Dimethyl-2-oxo-1,2-dihydropyridin-3-yl)methyl)-2,2-dimethyl-7-(6-morpholinopyridin-3-yl)-2,3-dihydrobenzofuran-5-carboxamide]",< 500
19,"Cc1cc(C)c(CNC(=O)c2cc3c(c(-c4cnc5ccccc5c4)c2)OC(C)(C)C3)c(=O)[nH]1 [Example 13, N-((4,6-Dimethyl-2-oxo-1,2-dihydropyridin-3-yl)methyl)-2,2-dimethyl-7-(quinolin-3-yl)-2,3-dihydrobenzofuran-5-carboxamide]",> 1000
20,"COc1ccc(-c2cc(C(=O)NCc3c(C)cc(C)[nH]c3=O)cc3c2OC(C)(C)C3)cn1 [Example 14, N-((4,6-Dimethyl-2-oxo-1,2-dihydropyridin-3-yl)methyl)-7-(6-methoxypyridin-3-yl)-2,2-dimethyl-2,3-dihydrobenzofuran-5-carboxamide]",500 to 1000
21,"Cc1cc(C)c(CNC(=O)c2cc(/C=C/c3ccccc3)c3c(c2)CC(C)(C)O3)c(=O)[nH]1 [Example 15, (E)-N-((4,6-Dimethyl-2-oxo-1,2-dihydropyridin-3-yl)methyl)-2,2-dimethyl-7-styryl-2,3-dihydrobenzofuran-5-carboxamide]",> 1000
22,"Cc1cc(C)c(CNC(=O)c2cc3c(c(-c4ccc(C(=O)N5CCN(C)CC5)cc4)c2)OC(C)(C)C3)c(=O)[nH]1 [Example 16, N-((4,6-Dimethyl-2-oxo-1,2-dihydropyridin-3-yl)methyl)-2,2-dimethyl-7-(4-(4-methylpiperazine-1-carbonyl)phenyl)-2,3-dihydrobenzofuran-5-carboxamide]",> 1000
23,"Cc1cc(C)c(CNC(=O)c2cc3c(c(-c4cnc(N5CCN(C(=O)OC(C)(C)C)CC5)nc4)c2)OC(C)(C)C3)c(=O)[nH]1 [Example 17, t-Butyl 4-(5-(5-(((4,6-dimethyl-2-oxo-1,2-dihydropyridin-3-yl)methyl)carbamoyl)-2,2-dimethyl-2,3-dihydrobenzofuran-7-yl)pyrimidin-2-yl)piperazine-1-carboxylate]",< 500
24,"Cc1cc(C)c(CNC(=O)c2cc3c(c(-c4ccc(N5CCNCC5)cc4)c2)OC(C)(C)C3)c(=O)[nH]1 [Example 18, N-((4,6-Dimethyl-2-oxo-1,2-dihydropyridin-3-yl)methyl)-2,2-dimethyl-7-(4-(piperazin-1-yl)phenyl)-2,3-dihydrobenzofuran-5-carboxamide]",< 500
25,"Cc1cc(C)c(CNC(=O)c2cc3c(c(-c4ccc(CN5CCCCC5)cc4)c2)OC(C)(C)C3)c(=O)[nH]1 [Example 19, N-((4,6-Dimethyl-2-oxo-1,2-dihydropyridin-3-yl)methyl)-2,2-dimethyl-7-(4-(piperidin-1-ylmethyl)phenyl)-2,3-dihydrobenzofuran-5-carboxamide]",> 1000

# Source: patent publication US9822103B2, “Inhibitors of lysine methyl transferase” (priority 2013, dated 2017)
